Data set [1] relates to Bacillus subtilis ATCC 6633. The data set can be described thus: Agar-plate disc-diffusion test. As to conditions: compound at 1 mg/ml, 7-mm disc, 24-48 hours at 25-37° C. It is filed as cell-based. The text has this:
| ^b Grown on minimal nutrient agar
(In agar diffusion tests the substance spreads into inoculated agar from a disc or well.)

The test system of data set [2] is Staphylococcus aureus X1.1. It is filed as cell-based. As to conditions: agar-dilution. An excerpt: (§1) The results of the antibacterial testing of a representative compound of formula 1, using the standard agar-dilution test, are summarized in Table II.
Data set [3] concerns Staphylococcus epidermidis EPI1. It is filed as cell-based. As to conditions: agar-dilution.
Text: as §1

For data set [4], the system named is Staphylococcus epidermidis EPI2. The data set is classed as cell-based. As to conditions: agar-dilution.
Text: as §1

The test system of another data set is Streptococcus Group 9960. It is filed as cell-based. As to conditions: agar-dilution.
Text: as §1

Data set [5] has as its system Streptococcus Group D X66. It is filed as cell-based. As to conditions: agar-dilution.
Text: as §1

The subject of data set [6] is Streptococcus pyogenes C203. The data set is classed as cell-based. Particulars: agar-dilution.
Text: as §1

The subject of data set [7] is Staphylococcus aureus V41. The data set is classed as cell-based. As to conditions: agar-dilution; penicillin-resistant strain.
Text: as §1
^b Pencillinresistant strain

Data set [8] has as its system Staphylococcus aureus X400. The data set is classed as cell-based. Particulars: agar-dilution; methicillin-resistant strain.
Text: as §1
^c Methicillinresistant-strain

A further data set relates to Staphylococcus aureus. The data set can be described thus: In vivo activity against experimental bacterial infection in mice. As to conditions: two doses, dose protecting fifty percent of the test animals.
The subject of another data set is Streptococcus pyogenes. Described as above. As to conditions: two doses, dose protecting fifty percent of the test animals.
Data set [9] can be described thus: Acute toxicity, intravenous, mice. As to conditions: mouse, in vivo, administered intravenously to mice.

SMILES strings stand for the structures. ≈ marks a conversion by molar mass, not a printed value.

Take `CCCCCCCCCCCCOc1ccc(C(=O)N[C@@H](Cc2c[nH]c3ccccc23)C(=O)N[C@@H](CC(N)=O)C(=O)N[C@@H](CC(=O)O)C(=O)N[C@@H]2C(=O)NCC(=O)N[C@@H](CCCNC(=O)OC(C)(C)C)C(=O)N[C@@H](CC(=O)O)C(=O)N[C@H](C)C(=O)N[C@@H](CC(=O)O)C(=O)NCC(=O)N[C@H](CO)C(=O)N[C@@H]([C@H](C)CC(=O)O)C(=O)N[C@@H](CC(=O)c3ccccc3N)C(=O)O[C@@H]2C)cc1` [Example 1]: the “Size of Zone of Inhibition, B. subtilis ATCC 6633 grown on minimal nutrient agar” value in data set [1] was 22 mm.

As a reminder, the LD50 is the dose expected to kill half of the subjects tested. A high value points to a less toxic substance. `CCCCCCCCCCCCOc1ccc(C(=O)N[C@@H](Cc2c[nH]c3ccccc23)C(=O)N[C@@H](CC(N)=O)C(=O)N[C@@H](CC(=O)O)C(=O)N[C@@H]2C(=O)NCC(=O)N[C@@H](CCCN)C(=O)N[C@@H](CC(=O)O)C(=O)N[C@H](C)C(=O)N[C@@H](CC(=O)O)C(=O)NCC(=O)N[C@H](CO)C(=O)N[C@@H]([C@H](C)CC(=O)O)C(=O)N[C@@H](CC(=O)c3ccccc3N)C(=O)O[C@@H]2C)cc1` [Example 2, NTrp -p-(n-dodecyloxy)benzoyl-A-21978C Nucleus]: the “Size of Zone of Inhibition, B. subtilis ATCC 6633 grown on minimal nutrient agar” value in data set [1] was determined as 20 mm. In addition, the “MIC, Staphylococcus aureus X1.1” value in data set [2] turned out to be 1 µg/mL (≈ 0.57 µM). Moreover, in data set [3], the “MIC, Staphylococcus epidermidis EPI1” value was 4 µg/mL (≈ 2.28 µM). Also, the “MIC, Staphylococcus epidermidis EPI2” value in [4] was found to be 2 µg/mL (≈ 1.14 µM). In the data set on Streptococcus Group 9960, the “MIC, Streptococcus Group 9960” value turned out to be 1 µg/mL (≈ 0.57 µM). Besides, in [5], the “MIC, Streptococcus Group D X66” value was 2 µg/mL (≈ 1.14 µM). In addition, the “MIC, Streptococcus pyogenes C203” value in data set [6] was 0.25 µg/mL (≈ 0.142 µM). The “MIC, Staphylococcus aureus V41” value in [7] was 1 µg/mL (≈ 0.57 µM). Also, in [8], the “MIC, Staphylococcus aureus X400” value came out at 2 µg/mL (≈ 1.14 µM). Further, the “ED50, Staphylococcus aureus, Subcutaneous” value in the data set with Staphylococcus aureus worked out at 3.35 mg/kg × 2. In addition, the “ED50, Streptococcus pyogenes, Oral” value with Streptococcus pyogenes (oral) is given as above 200 mg/kg × 2. For the same molecule, the “ED50, Streptococcus pyogenes, Subcutaneous” value in the data set on Streptococcus pyogenes (subcutaneous) is recorded as 0.31 mg/kg × 2. In addition, in [9], the LD50 turned out to be 67.5 mg/kg.

These data come from patent US4399067A.
